Test results: patent US11415579B2, “Assay for measuring a rate of reaction between a target and a ligand candidate” (Imperial College Innovations Ltd., priority 2016, dated 2022)

Legend:
Cdk2(N272C) (C177A) = biological target: T1, Cdk2(N272C) (C177A) (Homo sapiens, UniProt P24941, C177A/N272C); experiment: Kinetic thiol consumption assay with Cdk2 mutant N272C; format: binding; parameters: key to Rate enhancement, Cdk2 N272: rate constant with Cdk2 ÷ rate constant with model thiol (fold); details: for Rate enhancement, Cdk2 N272: Cdk2 N272, additional mutation C177A; for Rate constant with Cdk2 N272C: Protein: Cdk2, cysteine position N272C, additional mutation C177A, in h^-1
T1 construct: poly-histidine; made in house; host or cells: E. coli
In short: (§1)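 Read-out is fluorescence at 380/470 nm, taken after 1 h at room temperature and normalized to a DMSO/thiol-only control over time. Thiol (5 μM Cdk2 mutant or model thiol) was in degassed pH 8 phosphate buffer with 2% v/v TCEP beads. Acrylamide rate constants for Cdk2 were divided by those with model thiol.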

Cdk2[C177A, F80C, K278C] = biological target: T2, Cdk2[C177A, F80C, K278C] (Homo sapiens, UniProt P24941, C177A/F80C/K278C); experiment: Kinetic thiol consumption assay with mutant Cdk2 as model thiol; format: binding; parameters: unit not given here; details: 500 μM ligand, 5 μM thiol, phosphate buffer pH 8
T2 construct: poly-histidine; made in house; host or cells: E. coli
In short: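 First-order rate constants were derived by exponential-decay fitting of DMSO/thiol-normalized fluorescence (380/470 nm) over time at room temperature. Thiol was 5 μM E. coli-expressed His-tagged Cdk2 mutant C177A/F80C/K278C in degassed pH 8 phosphate buffer containing 2% v/v TCEP beads.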

Cdk2(S276C) (C177A) = biological target: T3, Cdk2(S276C) (C177A) (Homo sapiens, UniProt P24941, C177A/S276C); experiment: Kinetic thiol consumption assay with Cdk2 mutant S276C; format: binding; parameters: key to Rate enhancement, Cdk2 S276C: rate constant with Cdk2 ÷ rate constant with model thiol (fold); details: additional mutation C177A; for Rate constant with Cdk2 S276C: Protein: Cdk2, cysteine position S276C, in h^-1
T3 construct: poly-histidine; made in house; host or cells: E. coli
In short: as §1

Cdk2(H71C) (C177A) = biological target: T4, Cdk2(H71C) (C177A) (Homo sapiens, UniProt P24941, C177A/H71C); experiment: Kinetic thiol consumption assay with Cdk2 mutant H71C; format: binding; parameters: key to Rate enhancement, Cdk2 H71C: rate constant with Cdk2 ÷ rate constant with model thiol (fold); details: additional mutation C177A; for Rate constant with Cdk2 H71C: Protein: Cdk2, cysteine position H71C, in h^-1
T4 construct: poly-histidine; made in house; host or cells: E. coli
In short: as §1

Cdk2(C177A, F80C) = biological target: T5, Cdk2(C177A, F80C) (Homo sapiens, UniProt P24941, C177A/F80C); experiment: Kinetic thiol consumption assay with Cdk2 mutant F80C, incl. kobs versus concentration (Kd, k2); format: binding; parameters: key to Rate enhancement, Cdk2 F80C: Cdk2 rate constant divided by model-thiol rate constant; details: additional mutation C177A; for Rate constant with Cdk2 F80C: Protein: Cdk2, cysteine position F80C, in h^-1
T5 construct: poly-histidine; made in house; host or cells: E. coli
In short: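 His-tagged Cdk2(C177A/F80C) from E. coli or model thiol, 5 μM in degassed phosphate buffer pH 8 with TCEP beads, reacted with acrylamide ligands; fluorescence (ex/em 380/470 nm) normalized to DMSO control and fitted to first-order decay for kobs. Kd and k2 obtained from hyperbolic fit of kobs versus ligand concentration.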

Cdk2(T182C) (C177A) = biological target: T6, Cdk2(T182C) (C177A) (Homo sapiens, UniProt P24941, C177A/T182C); experiment: Kinetic thiol consumption assay with Cdk2 mutant T182C; format: binding; parameters: key to Rate enhancement, Cdk2 T182C: rate constant with Cdk2 ÷ rate constant with model thiol (fold); details: additional mutation C177A; for Rate constant with Cdk2 T182C: Protein: Cdk2, cysteine position T182C, in h^-1
T6 construct: poly-histidine; made in house; host or cells: E. coli
In short: as §1

Cdk2(S181C) (C177A) = biological target: T7, Cdk2(S181C) (C177A) (Homo sapiens, UniProt P24941, C177A/S181C); experiment: Kinetic thiol consumption assay with Cdk2 mutant S181C; format: binding; parameters: key to Rate enhancement, Cdk2 S181C: rate constant with Cdk2 ÷ rate constant with model thiol (fold); details: additional mutation C177A; for Rate constant with Cdk2 S181C: Protein: Cdk2, cysteine position S181C, in h^-1
T7 construct: poly-histidine; made in house; host or cells: E. coli
In short: as §1

[1] = biological target: T8, human cyclin-dependent kinase 2 (Cdk2) (Homo sapiens, UniProt P24941); experiment: Kinetic thiol consumption assay with wild type Cdk2 (C177); format: binding; parameters: key to Rate enhancement, Cdk2 WT: k(Cdk2) divided by k(model thiol); Rate constant with Cdk2 (k(Cdk2)): unit not given here; details: for Rate constant with Cdk2 (k(Cdk2)): 500 μM ligand, 5 μM thiol, phosphate buffer pH 8; for Rate enhancement, Cdk2 WT: no additional mutations; for Rate constant with Cdk2 WT: Protein: Cdk2, cysteine position WT, in h^-1; for k(Cdk2)/k(Cdk2_mut) rate enhancement: model thiol Cdk2[C177A, F80C, K278C]; for k(Cdk2)/k(GSH) rate enhancement: model thiol glutathione
T8 construct: poly-histidine; made in house; host or cells: E. coli
In short: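 Rate enhancement: first-order decay constant with Cdk2 over that with a model thiol. Thiols (5 μM, degassed phosphate buffer pH 8, immobilized TCEP) were incubated with acrylamides at room temperature, and thiol consumption followed by fluorescence at 380/470 nm, normalized to DMSO control. Cdk2 was His-tagged, E. coli-expressed, with one surface cysteine (C177).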

[2] = Kinetic thiol consumption assay with model thiol glutathione; format: physicochemical; parameters: Rate constant with glutathione (k(GSH)): unit not given here; details: for Rate constant with glutathione (k(GSH)): 500 μM ligand, 5 μM thiol, phosphate buffer pH 8; for Rate constant with Glutathione: Protein: Glutathione, cysteine position NA, in h-1
In short: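 First, 5 μM glutathione in degassed phosphate buffer (pH 8) receives immobilized TCEP beads (2% v/v). Then acrylamide is added and plates incubate 1 h at room temperature. Finally, fluorescence (380/470 nm) is normalized and fitted to first-order decay for rate constants.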

Cdk2(R122C) (C177A) = biological target: T9, Cdk2(R122C) (C177A) (Homo sapiens, UniProt P24941, C177A/R122C); experiment: Kinetic thiol consumption assay with Cdk2 mutant R122C; format: binding; parameters: key to Rate enhancement, Cdk2 R122C: rate constant with Cdk2 ÷ rate constant with model thiol (fold); details: additional mutation C177A; for Rate constant with Cdk2 R122C: Protein: Cdk2, cysteine position R122C, in h-1
T9 construct: poly-histidine; made in house; host or cells: E. coli
In short: as §1

Row | Structure (SMILES) | Rate enhancement, Cdk2 N272 (Cdk2(N272C) (C177A)) | Rate constant with Cdk2 N272C (Cdk2(N272C) (C177A)) | Rate constant with Cdk2[C177A, F80C, K278C] (k(Cdk2_mut)) (Cdk2[C177A, F80C, K278C]) | Rate enhancement, Cdk2 S276C (Cdk2(S276C) (C177A)) | Rate enhancement, Cdk2 H71C (Cdk2(H71C) (C177A)) | Rate enhancement, Cdk2 F80C (Cdk2(C177A, F80C)) | Rate constant with Cdk2 F80C (Cdk2(C177A, F80C)) | Rate enhancement, Cdk2 T182C (Cdk2(T182C) (C177A)) | Rate constant with Cdk2 T182C (Cdk2(T182C) (C177A)) | Rate enhancement, Cdk2 S181C (Cdk2(S181C) (C177A)) | Rate constant with Cdk2 S181C (Cdk2(S181C) (C177A)) | Rate constant with Cdk2 (k(Cdk2)) [1] | Rate enhancement, Cdk2 WT [1] | Rate constant with Cdk2 WT [1] | k(Cdk2)/k(Cdk2_mut) rate enhancement [1] | k(Cdk2)/k(GSH) rate enhancement [1] | Rate constant with glutathione (k(GSH)) [2] | Rate constant with Glutathione [2] | Rate enhancement, Cdk2 R122C (Cdk2(R122C) (C177A)) | Rate constant with Cdk2 S276C (Cdk2(S276C) (C177A)) | further results
1 | C=CC(=O)NCc1ccc(-c2csnn2)cc1 [BN-66] | 1.553 | 0.002323 | 0.0035 | 0 | 0.7553 | 2.336 | 0.003494 | 3.479 | 0.005204 | 0.8476 | 0.001268 | 0.00089 | 0.9753 | 0.001459 | 0.2541 | 0.5565 | 0.0016 | 0.001496 | 0 |  | Rate constant with Cdk2 H71C (Cdk2(H71C) (C177A)): 0.00113
2 | C=CC(=O)N1CC2CCCCCCC21 (stereo not drawn) [CA-098] | 6.698 | 0.1716 | 0.00546 | 3.196 | 0.8002 | 0.5929 | 0.01519 | 4.766 | 0.1221 | 0.8872 | 0.02273 | 0.01499 | 0.9446 | 0.0242 | 2.745 | 0.9287 | 0.01614 | 0.02562 | 0.3481 | 0.08188 | Rate constant with Cdk2 H71C (Cdk2(H71C) (C177A)): 0.0205; Rate constant with Cdk2 R122C (Cdk2(R122C) (C177A)): 0.008918
3 | C=CC(=O)N1CCC(NC(=O)C2CCC2)C1 (stereo not drawn) [CA-088] | 0.5609 | 0.01092 | 0.00177 | 0.4395 | 0 | 0.1205 | 0.002347 | 0.9096 | 0.01771 | 0.1904 | 0.003708 | 0.00595 | 0.3054 | 0.005947 | 3.366 | 0.4399 | 0.01352 | 0.01947 | 0.4684 | 0.008557 | Rate constant with Cdk2 R122C (Cdk2(R122C) (C177A)): 0.009119
4 | C=CC(=O)NC1CCN(Cc2ccccc2)CC1 [BN-78] | 0.5049 | 0.003673 | 0.00196 | 0.1622 | 0 | 0.2437 | 0.001773 | 0.1316 | 0.0009576 | 0.09002 | 0.0006548 | 0.00116 | 0.1591 | 0.001157 | 0.5905 | 0.2873 | 0.00403 | 0.007274 | 0.2392 | 0.00118 | Rate constant with Cdk2 R122C (Cdk2(R122C) (C177A)): 0.00174
5 | C=CC(=O)N(Cc1ccco1)Cc1cc2cc(C)ccc2o1 [CA-178] | 3.356 | 0.5306 | 0.6107 | 2.953 | 5.546 | 1.581 | 0.2499 | 2.909 | 0.4599 | 0.8912 | 0.1409 | 0.1507 | 0.9532 | 0.1507 | 0.2468 | 1.065 | 0.1415 | 0.1581 | 1.616 | 0.4669 | Rate constant with Cdk2 H71C (Cdk2(H71C) (C177A)): 0.8769; Rate constant with Cdk2 R122C (Cdk2(R122C) (C177A)): 0.2555
6 | C=CC(=O)Nc1ccc(C(=O)c2ccccc2)cc1 [CA-219] | 0.8368 | 0.0558 | 0.7188 | 1.204 | 0.5597 | 17.8 | 1.187 | 9.837 | 0.6559 | 0.5975 | 0.03984 | 0.2317 | 3.475 | 0.2317 | 0.3223 | 3.556 | 0.06515 | 0.06668 | 0.1738 | 0.08025 | Rate constant with Cdk2 H71C (Cdk2(H71C) (C177A)): 0.03732; Rate constant with Cdk2 R122C (Cdk2(R122C) (C177A)): 0.01159
7 | C=CC(=O)N1CCCC1c1cnc2ccccc2c1 (stereo not drawn) [EL-1064] | 1.056 | 0.01262 | 0.00766 | 1.074 | 0.8653 | 1.645 | 0.01966 | 1.7 | 0.02031 | 1.469 | 0.01756 | 0.00589 | 0.4929 | 0.00589 | 0.7691 | 0.489 | 0.01205 | 0.01195 | 0.5786 | 0.01284 | Rate constant with Cdk2 H71C (Cdk2(H71C) (C177A)): 0.01034; Rate constant with Cdk2 R122C (Cdk2(R122C) (C177A)): 0.006914
